# Calls of active or inactive are those of the source. No cut-off for these calls is given here.
# Tests used:
# [1] = target: Histamine H3 receptor (Cavia porcellus) (UniProt Q9JI35); assay: Antagonist activity at guinea pig histamine H3 receptor assessed as blockade of (R)-alpha-methyl histamine-induced inhibition of EFS-stimulated guinea pig ileum contraction at 1 ug/mL; assay type: functional, tissue-based
# Histamine H3 receptor = Histamine H3 receptor (Cavia porcellus, UniProt Q9JI35); assay: Binding affinity to histamine H3 receptor in guinea pig brain membrane; assay type: cell membranes
# [2] = target: Histamine H3 receptor (Cavia porcellus) (UniProt Q9JI35); assay: Antagonist activity at guinea pig histamine H3 receptor assessed as blockade of clonidine-induced inhibition of EFS-stimulated guinea pig ileum contraction at 1 ug/mL; assay type: functional, tissue-based
# Histamine H3 receptor (Cavia porcellus), sequence (Q9JI35 whole entry): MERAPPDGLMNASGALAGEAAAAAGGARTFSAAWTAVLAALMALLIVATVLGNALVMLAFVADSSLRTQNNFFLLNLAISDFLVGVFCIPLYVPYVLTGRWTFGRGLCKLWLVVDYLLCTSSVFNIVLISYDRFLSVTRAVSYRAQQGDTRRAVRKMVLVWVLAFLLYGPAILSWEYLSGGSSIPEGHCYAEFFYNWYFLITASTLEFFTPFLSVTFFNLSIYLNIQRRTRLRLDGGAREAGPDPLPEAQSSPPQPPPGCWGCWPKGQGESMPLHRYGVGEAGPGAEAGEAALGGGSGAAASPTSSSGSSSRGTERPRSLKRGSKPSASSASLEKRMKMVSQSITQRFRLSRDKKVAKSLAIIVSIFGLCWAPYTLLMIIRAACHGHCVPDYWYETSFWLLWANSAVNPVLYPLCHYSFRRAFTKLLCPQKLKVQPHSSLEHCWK
# Histamine H3 receptor, sequence (Q9JI35 whole entry): as above
Activity [1],IC50 (Histamine H3 receptor) [nM],Activity [2],Compound
inactive,,,COC1=C(Br)C(O)C2(C=C1Br)CC(C(=O)NCCc1c[nH]cn1)=NO2 (centres undefined)
Active,500,inactive,COc1ccc(C/C(=N\O)C(=O)NCCc2c[nH]cn2)cc1Br [VERONGAMINE]

# — ChEMBL document CHEMBL1149035, “Verongamine, a novel bromotyrosine-derived histamine H3-antagonist from the marine sponge Verongula gigantea” (J Nat Prod, 1994)
